Data published in ChEMBL document CHEMBL3886753, “Heterocyclic carboxylic acids as activators of soluble guanylate cyclase” (2016).

Experiment: Homogeneous Time Resolved Fluorescence Assay: The sGC cellular activator assay is performed in the presence and absence of 50% human serum (HS) using Chinese hamster ovary cells that have been stably transfected to express the human soluble guanylate cyclase alpha 1 and beta 1 subunits (sGC). Cells are preincubated with 40 microM 1H-[1,2,4]oxadiazolo[4,3-a]quinoxalin-1-one (ODQ), an sGC inhibitor, for one h in buffer containing 0.1% bovine serum albumin and 3-isobutyl-1-methylxanthine (IBMX). Concentration response curves are prepared for test compounds in DMSO. An intermediate dilution of the compounds is performed in either buffer containing IBMX or type AB HS containing IBMX. Diluted compounds are added to cells and they are incubated at room temperature for thirty min. cGMP is measured using a CisBio homogeneous time resolved fluorescence kit and the EC50 is calculated for each compound.

Row | SMILES | EC50
1 | Cc1cccc(-c2csc(N3CC[C@@]4(C(=O)O)C[C@H]4C3)n2)c1OCc1ccc2c(c1C)CCN(C1CCOCC1)C2 | 11 nM
2 | CO[C@@H]1CN(c2cccc(-c3cccc(C)c3OCc3ccc4c(c3C)CCN(C3CCOCC3)CC4)n2)CC[C@@H]1C(=O)O | 6 nM
3 | Cc1ccc(OCc2ccc3c(c2)CCN(C2COC2)C3)c(-c2csc(N3CC[C@@]4(C(=O)O)C[C@H]4C3)n2)c1 | 73 nM
4 | Cc1cccc(-c2csc(N3CC[C@@]4(C(=O)O)C[C@H]4C3)n2)c1OCc1ccc2c(c1C)CCN(C1COC1)CC2 | 6 nM
5 | Cc1ccc(OCc2ccc3c(c2C)CCN(C2CCOCC2)C3)c(-c2ccnc(N3CC[C@@]4(C(=O)O)C[C@H]4C3)n2)c1 | 12 nM
6 | Cc1cccc(-c2csc(N3CC[C@@]4(C(=O)O)C[C@H]4C3)n2)c1OCc1cnc2c(c1)CCN(C1CCOC1)C2 (stereo partly drawn) | 453 nM
7 | Cc1ccc(OCc2ccc3c(c2C)CCN(C2COC2)CC3)c(-c2cccc(N3CC4C[C@]4(C(=O)O)C3)n2)c1 (stereo partly drawn) | 50 nM
8 | Cc1cccc(-c2csc(N3CC[C@@]4(C(=O)O)C[C@H]4C3)n2)c1OCc1ccc2c(c1)CCN(C1CCOC1)CC2 (stereo partly drawn) | 11 nM
9 | Cc1cccc(-c2csc(N3CC[C@@]4(C(=O)O)C[C@H]4C3)n2)c1OCc1ccc2c(c1C)CCN(C1CCOCC1)CC2 | 2 nM
10 | Cc1cc(COc2c(C)cccc2-c2csc(N3CC[C@@]4(C(=O)O)C[C@H]4C3)n2)cc2c1CN(CC1COCCO1)CC2 (stereo partly drawn) | 11 nM
11 | CO[C@@H]1CN(c2nc(-c3cc(F)cc(C)c3OCc3ccc4c(c3)[C@@H](C)CN(C3CCOCC3)CC4)cs2)CC[C@@H]1C(=O)O | 5 nM
12 | Cc1cccc(-c2csc(N3CC[C@@]4(C(=O)O)C[C@H]4C3)n2)c1OCc1cnc2c(c1)CCN(C1CCOCC1)C2 | 209 nM
13 | Cc1cccc(-c2csc(N3CC[C@@]4(C(=O)O)C[C@H]4C3)n2)c1OCc1ccc2c(c1C)CCN(C1COC1)C2 | 17 nM
14 | O=C(O)[C@@]12CCN(c3nccc(-c4ccccc4OCc4ccc5c(c4)CCN(C4CCOCC4)C5)n3)C[C@@H]1C2 | 32 nM
15 | Cc1cc(COc2c(C)cccc2-c2csc(N3CC[C@@]4(C(=O)O)C[C@H]4C3)n2)cc2c1CN(C1COC1)CC2 | 2 nM
16 | Cc1cccc(-c2csc(N3CC[C@@]4(C(=O)O)C[C@H]4C3)n2)c1OCc1ccc2c(c1)CCN(C1CCOCC1)CC2 | 10 nM
17 | CO[C@@H]1CN(c2nc(-c3cc(F)cc(C)c3OCc3ccc4c(c3)[C@H](C)CN(C3CCOCC3)CC4)cs2)CC[C@@H]1C(=O)O | 11 nM
18 | CO[C@H]1CN(c2nc(-c3cc(C)ccc3OCc3ccc4c(c3C)CCN(C[C@@H]3CCOC3)C4)cs2)CC[C@H]1C(=O)O | 17 nM
